Laboratory results reported in PMC4876372 (Scientific Reports, 2016).
Where two headings read alike, the source gives them in different places.

Key:
[1] = tested on: 8-oxo-dG levels in DNA of HeLa cells; assay: 8-oxo-dG immunofluorescence; type: cell-based, human; settings: 20 h, NPD compounds 100 μM, TH287 3 and 10 μM
Protocol: Human cancer cell lines HeLa (cervical cancer), MIA PaCa-2 (pancreatic cancer), A431 (epidermoid carcinoma), and human embryonic kidney derived cell line HEK293T were cultured in Dulbecco’s Modified Eagle’s Medium (DMEM; Invitrogen) containing 10% fetal bovine serum (FBS), penicillin G (50 units/mL) and streptomycin (50 µg/mL). Human cancer cell lines Panc-1 (pancreatic cancer) and Jurkat (T cell lymphoma) were cultured in RPMI (Gibco) containing 10% FBS, penicillin G (50 units/mL) and streptomycin (50 µg/mL). Human osteosarcoma cell line MG-63, mouse embryonic fibroblast NIH3T3 cells and its transformant NIH3T3/KRAS cells1 were cultured in DMEM (Sigma-Aldrich) containing 10% calf serum, glutamine (0.3 g/L), penicillin G (50 units/mL), and streptomycin (50 µg/mL). All cell lines were incubated at 37 °C in a humidified atmosphere containing 5% CO2. […]
The HeLa cells were seeded on glass coverslips in 12-well plates, cultured overnight, and treated with test compounds for the indicated time. For 8-oxo-dG, cells were fixed sequentially in 3.7% formalin for 10 min and methanol at -20 °C for 10 min, and then permeabilized in 0.5% Triton X-100 in PBS at room temperature for 5 min. After blocking with 0.5% BSA in PBS at room temperature for 30 min, cells were incubated sequentially with a primary antibody against 8-oxo-dG (5 µg/mL, MOG-020; Japan Institute for the Control of Aging) and with Alexa Fluor 488-conjugated secondary antibody (1:400, Life Technologies) under the same conditions. After a quick rinse in PBS, DNA was counterstained with 0.1 µg/mL 4′,6-diamidino-2-phenylindole (DAPI) in PBS at room temperature for 10 min. Images were analyzed with a fluorescence microscope (BX60, Olympus).

[2] = tested on: PANC-1, MIA PaCa-2, A431, Jurkat, MG-63, NIH3T3 and NIH3T3/KRAS cells; type: cell-based; settings: 72 or 96 h, WST-8
Protocol: Human cancer cell lines HeLa (cervical cancer), MIA PaCa-2 (pancreatic cancer), A431 (epidermoid carcinoma), and human embryonic kidney derived cell line HEK293T were cultured in Dulbecco’s Modified Eagle’s Medium (DMEM; Invitrogen) containing 10% fetal bovine serum (FBS), penicillin G (50 units/mL) and streptomycin (50 µg/mL). Human cancer cell lines Panc-1 (pancreatic cancer) and Jurkat (T cell lymphoma) were cultured in RPMI (Gibco) containing 10% FBS, penicillin G (50 units/mL) and streptomycin (50 µg/mL). Human osteosarcoma cell line MG-63, mouse embryonic fibroblast NIH3T3 cells and its transformant NIH3T3/KRAS cells1 were cultured in DMEM (Sigma-Aldrich) containing 10% calf serum, glutamine (0.3 g/L), penicillin G (50 units/mL), and streptomycin (50 µg/mL). All cell lines were incubated at 37 °C in a humidified atmosphere containing 5% CO2.
The cells were seeded in 96-well plates, cultured overnight, and treated with test compounds for the indicated time. Subsequently, cell viability was measured by the WST-8 assay, using Cell Count Reagent SF (Nacalai Tesque) according to the manufacturer ’s instructions, with the measurement of absorbance set at 450 nm on the ARVO SX 1420 Multilabel Counter (Wallac). […]

[3] = biological target: T1, His-tagged human recombinant DCTPP1 protein (Homo sapiens, UniProt Q9H773); assay: DCTPP1 enzyme assay; type: biochemical; settings: at 100 μM
T1 construct: His; purchased ATGen
T1 sequence (Q9H773 1-170): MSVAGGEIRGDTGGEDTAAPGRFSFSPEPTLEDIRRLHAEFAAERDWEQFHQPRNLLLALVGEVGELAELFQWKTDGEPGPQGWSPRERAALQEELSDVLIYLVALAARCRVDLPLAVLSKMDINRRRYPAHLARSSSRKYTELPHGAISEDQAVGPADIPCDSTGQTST
Protocol: Likewise, the enzymatic activities of ITPA and DCTPP1 were measured using a PPiLight Inorganic Pyrophosphate Assay kit. For the ITPA enzyme assay, we used ITPA assay buffer (100 mM Tris-acetate, 50 mM Mg(OAc)2, 0.005% Tween-20, and 2 mM DTT, pH 7.5), His-tagged human recombinant ITPA protein (5 nM; ProSpec), and ITP (25 μM). For the DCTPP1 enzyme assay, we used DCTPP1 assay buffer (100 mM Tris-acetate, 100 mM NaCl, 10 mM Mg(OAc)2, 0.005% Tween-20, and 2 mM DTT, pH 7.5), His-tagged human recombinant DCTPP1 protein (50 nM; ATGen), and deoxycytidine triphosphate (dCTP; 50 μM).
To exclude false positive compounds that inhibit PPi detection, the effects of test compounds on 10 μM Na4P2O7-induced luciferase activity were examined.

[4] = biological target: T2, His-tagged human recombinant MTH1 protein (Homo sapiens, UniProt P36639); assay: MTH1 enzyme assay (PPiLight pyrophosphate detection); type: biochemical; settings: for IC50: MTH1 2 nM; for Ki: Dixon plot; for manner of MTH1 inhibition: with respect to 8-oxo-dGTP and 2-OH-dATP, Lineweaver-Burk
T2 construct: His; purchased ProSpec
Protocol: An MTH1 enzyme assay was performed as described previously with minor modifications. Briefly, test compounds were dissolved in an assay buffer [100 mM Tris-acetate, 40 mM NaCl, 10 mM Mg(OAc)2, 0.005% Tween-20, and 2 mM dithiothreitol (DTT), pH 7.5] containing His-tagged human recombinant MTH1 protein (2 nM; ProSpec). […] Relative MTH1 activity was measured by monitoring the pyrophosphate (PPi) generated through MTH1-catalyzed nucleotide triphosphate hydrolysis. The luciferase-mediated luminescence signal was recorded for 30 min using a luminometer (Molecular Devices).

[5] = substrate 2-OH-dATP (8.3 μM), read-out: IC50 of MTH1 inhibitory activity, 2-OH-dATP
[6] = substrate 2-OH-dATP, read-out: Ki for 2-OH-dATP
[7] = substrate 8-oxo-dGTP, read-out: Ki for 8-oxo-dGTP

Row | SMILES | accumulation of 8-oxo-dG [1] | cytotoxicity against cancer cell lines and KRAS-transformed fibroblast cells [2] | effect on enzymatic activity of DCTPP1 [3] | IC50 [4, 5] | Ki [4, 6] | Ki [4, 7] | manner of MTH1 inhibition [4] | IC50 ([4]; substrate 8-oxo-dGTP (13.2 μM), read-out: IC50 of MTH1 inhibitory activity, 8-oxo-dGTP)
1 | CC1(C)CC2CC(C)(CN2c2ncnc3[nH]cnc23)C1 (stereo not drawn) [NPD7155] | did not induce the significant accumulation | less potent cytotoxicity | did not affect | 0.38 ± 0.16 µM | 0.18 ± 0.03 µM | 0.1 ± 0.04 µM | competitive | 
2 | Nc1nc(NCCc2ccccc2)c2nc[nH]c2n1 [NPD9948] | did not induce the significant accumulation | less potent cytotoxicity | did not affect | 0.5 ± 0.21 µM | 0.22 ± 0.04 µM | 0.13 ± 0.05 µM | competitive | 0.29 ± 0.05 µM
